Four compounds from PubChem BioAssay AID1259407 (Chemical Carcinogenesis Research Information System (CCRIS), 2018) can be followed below.

For this data set, the system named is CCRIS mutagenicity, Ames/micronucleus/aberration tests. Put plainly: CCRIS mutagenicity studies.

The structures appear in SMILES notation. Activity calls are given as the source filed them. No rule for the calls is given here.

Consider `C1=Cc2cc3cc4ccccc4cc3c3cccc1c23`, for which the mutagenic call reads like this: (Test System: CHINESE HAMSTER OVARY, Strain/Indicator: V-79/6-THIOGUANINE, Metabolic Activation: RAT, LIVER, S-9, AROCLOR 1254, Method: FLASK ASSAY) “active; positive”; (Test System: CHINESE HAMSTER OVARY, Strain/Indicator: V-79/6-THIOGUANINE, Metabolic Activation: SHE CELL MEDIATED, Method: FLASK ASSAY) “inactive; negative”; (Test System: CHINESE HAMSTER V-79, Strain/Indicator: V-79/6-THIOGUANINE, Metabolic Activation: RAT, LIVER, S-9, AROCLOR 1254, Method: SUSPENSION/PLATE) “active; positive”.

Turning to `NC(=O)c1ccccc1C(N)=O`, the mutagenic call (Test System: AMES SALMONELLA TYPHIMURIUM, Strain/Indicator: TA98, Metabolic Activation: HAMSTER, LIVER, S-9, AROCLOR 1254 (10%), Method: PREINCUBATION) is “inactive; negative”; the mutagenic call (Test System: AMES SALMONELLA TYPHIMURIUM, Strain/Indicator: TA98, Metabolic Activation: NONE, Method: PREINCUBATION) is “inactive; negative”; the mutagenic call (Test System: AMES SALMONELLA TYPHIMURIUM, Strain/Indicator: TA98, Metabolic Activation: RAT, LIVER, S-9, AROCLOR 1254 (10%), Method: PREINCUBATION) is “inactive; negative”; the mutagenic call (Test System: AMES SALMONELLA TYPHIMURIUM, Strain/Indicator: TA100, Metabolic Activation: HAMSTER, LIVER, S-9, AROCLOR 1254 (10%), Method: PREINCUBATION) is “inactive; negative”; the mutagenic call (Test System: AMES SALMONELLA TYPHIMURIUM, Strain/Indicator: TA100, Metabolic Activation: NONE, Method: PREINCUBATION) was “inactive; negative”; the mutagenic call (Test System: AMES SALMONELLA TYPHIMURIUM, Strain/Indicator: TA100, Metabolic Activation: RAT, LIVER, S-9, AROCLOR 1254 (10%), Method: PREINCUBATION) is “inactive; negative”. Also, the mutagenic call runs as follows: (Test System: AMES SALMONELLA TYPHIMURIUM, Strain/Indicator: TA1535, Metabolic Activation: HAMSTER, LIVER, S-9, AROCLOR 1254 (10%), Method: PREINCUBATION) “inactive; negative”; (Test System: AMES SALMONELLA TYPHIMURIUM, Strain/Indicator: TA1535, Metabolic Activation: NONE, Method: PREINCUBATION) “inactive; negative”; (Test System: AMES SALMONELLA TYPHIMURIUM, Strain/Indicator: TA1535, Metabolic Activation: RAT, LIVER, S-9, AROCLOR 1254 (10%), Method: PREINCUBATION) “inactive; negative”; (Test System: AMES SALMONELLA TYPHIMURIUM, Strain/Indicator: TA1537, Metabolic Activation: HAMSTER, LIVER, S-9, AROCLOR 1254 (10%), Method: PREINCUBATION) “inactive; negative”; (Test System: AMES SALMONELLA TYPHIMURIUM, Strain/Indicator: TA1537, Metabolic Activation: NONE, Method: PREINCUBATION) “inactive; negative”; (Test System: AMES SALMONELLA TYPHIMURIUM, Strain/Indicator: TA1537, Metabolic Activation: RAT, LIVER, S-9, AROCLOR 1254 (10%), Method: PREINCUBATION) “inactive; negative”.

Regarding `C=C(C=O)CCC`, the mutagenic call (Test System: AMES SALMONELLA TYPHIMURIUM, Strain/Indicator: TA100, Metabolic Activation: RAT LIVER S-9, AROCLOR 1254, Method: PREINCUBATION) was “active; positive” and the mutagenic call (Test System: AMES SALMONELLA TYPHIMURIUM, Strain/Indicator: TA100, Metabolic Activation: RAT, LIVER, S-9, AROCLOR 1254, Method: PREINCUBATION) is “active; positive”.

With `Fc1cnc2c(c1)cc(F)c1ccccc12`, for the setting “Test System: AMES SALMONELLA TYPHIMURIUM, Strain/Indicator: TA100, Metabolic Activation: RAT, LIVER, S-9, PHENOBARBITAL AND 5,6-BENZOFLAVONE, Method: PREINCUBATION”, the mutagenic call is “inactive; negative”.
